Results as given in article PMC6104039 (Nature Communications, 2018).
Where “and” joins values, the source holds several entries; their conditions need not be identical. Equal values may be shown once.

Columns and labels:
cerebellum = assay: Ceramide, SM and HexCer levels in cerebellum; assay type: in vivo, mice;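 on Cer 18:1/18:0 content of cerebellum: pmol per mg cerebellum tissue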;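 on Cer 18:1/24:0 content of cerebellum: pmol per mg cerebellum tissue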;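 on Cer 18:1/24:1 content of cerebellum: pmol per mg cerebellum tissue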;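 on Cer 18:2/18:0 content of cerebellum: pmol per mg cerebellum tissue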;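 on HexCer 18:1 content of cerebellum: pmol per mg cerebellum tissue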;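 on HexCer 20:1 content of cerebellum: pmol per mg cerebellum tissue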;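 on HexCer 22:1 content of cerebellum: pmol per mg cerebellum tissue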;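 on HexCer 24:0 content of cerebellum: pmol per mg cerebellum tissue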;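 on SM 32:1 content of cerebellum: pmol per mg cerebellum tissue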;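 on SM 34:2 content of cerebellum: pmol per mg cerebellum tissue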;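 on SM 36:1 content of cerebellum: pmol per mg cerebellum tissue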;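 on SM 36:2 content of cerebellum: pmol per mg cerebellum tissue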;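 on SM 40:1 content of cerebellum: pmol per mg cerebellum tissue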;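 on SM 40:2 content of cerebellum: pmol per mg cerebellum tissue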;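 on SM 42:1 content of cerebellum: pmol per mg cerebellum tissue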;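 on SM 42:2 content of cerebellum: pmol per mg cerebellum tissue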
Source text: Supplementary Figure 7. […] Ceramide, SM, and HexCer […]
levels in the cerebellum of vehicle- or P053-treated mice on a chow or HFD. N = 10 mice per group, except for chow vehicle group (n = 9). Mean ± SEM shown. No lipids were […]
comparisons. C18:0 HexCer was 45% lower in the P053-treated compared to the vehicle-treated HFD group (unadjusted P value = 0.02; adjusted value P = 0.16). Raw data for these figures is provided in Supplementary Data File 1.

C57BL6/J mice = assay: Food intake; conditions: mouse, in vivo
SkM homogenates = assay: 14C-palmitate oxidation in SkM homogenates of treated mice; assay type: in vivo; conditions: chow and HFD-fed mice, 6 weeks
Method: Tibialis muscles were homogenized in 19 volumes of 250 mM sucrose, 10 mM Tris-HCl and 1 mM EDTA, pH 7.4.

[1] = tested on: cultured primary myotubes; assay: Ceramide content of cultured primary myotubes; assay type: cell-based, murine; conditions: 1 μM
Source text: myotubes would go a long way in making the muscle component of this work more […]
Response: We agree with the reviewer that experiments in muscle cells often allow additional mechanistic studies to be undertaken. We investigated this possibility in immortalised and primary […]
where C18:0 ceramide is by the far the dominant ceramide species, cultured muscle cells contain much higher levels of other ceramides, particularly C16:0 (see figure below). This divergence in ceramide profile between cultured myotubes and muscle tissue in vivo has been reported by other […]
C18:0 ceramide content in cultured primary myotubes by ~30% (P = 0.02), whilst having no […]
profile of skeletal muscle, CerS1 inhibition experiments with myotubes would have limited translatability to the in vivo setting.
(1 picture or pasted object on this page, not shown here)

[2] = HFD + P053, individual mice, raw data for Supplementary Figure 7

For C[C@@](N)(CO)CCc1ccc(OCc2ccc(Cl)c(Cl)c2)cc1 [P053, (S)-2-amino-4-(4-(3,4-dichlorobenzyloxy)phenyl)-2-methylbutan-1-ol], the “Cer 18:1/16:0 content of cerebellum” value (cerebellum; [2]) was 2.762 and 1.437 and 5.744 and 2.262 and 3.928 and 1.548 and 1.88 and 7.07 and 1.652 and 5.347, the “Cer 18:1/18:0 content of cerebellum” value (cerebellum; [2]) was 128.546 and 82.2707 and 288.623 and 116.318 and 172.743 and 86.572 and 112.409 and 311.979 and 100.825 and 239.53 and the “Cer 18:1/20:0 content of cerebellum” value (cerebellum; [2]) was 9.681 and 8.421 and 28.463 and 10.3564 and 18.7569 and 5.821 and 8.037 and 34.6254 and 7.548 and 24.475. The “Cer 18:1/22:0 content of cerebellum” value (cerebellum; [2]) was 15.9533 and 14.996 and 57.2919 and 21.4543 and 38.4094 and 10.5899 and 9.986 and 74.6469 and 9.154 and 46.3627, the “Cer 18:1/24:0 content of cerebellum” value (cerebellum; [2]) was 36.0277 and 35.1841 and 132.359 and 47.5021 and 88.9579 and 25.0017 and 22.1183 and 201.705 and 15.8687 and 131.28 and the “Cer 18:1/24:1 content of cerebellum” value (cerebellum; [2]) was 97.7004 and 105.297 and 370.02 and 145.116 and 239.743 and 56.9618 and 60.5027 and 471.673 and 50.6294 and 252.902. The “Cer 18:2/18:0 content of cerebellum” value (cerebellum; [2]) was 5.2575 and 7.26 and 15.0915 and 8.468 and 10.666 and 4.461 and 4.156 and 21.6288 and 3.082 and 13.66, the “HexCer 16:0 content of cerebellum” value (cerebellum; [2]) was 8.934 and 17.284 and 8.364 and 13.8417 and 14.6417 and 7.1271 and 5.255 and 9.259 and 5.878 and 7.654 and the “HexCer 18:0 content of cerebellum” value (cerebellum; [2]) was 106.702 and 382.139 and 122.466 and 271.752 and 258.221 and 146.382 and 115.813 and 146.018 and 61.4581 and 111.285. The “HexCer 18:1 content of cerebellum” value (cerebellum; [2]) was 19.0333 and 51.9273 and 16.2259 and 33.0148 and 32.5326 and 25.3913 and 23.9698 and 16.5527 and 15.5439 and 16.7312, the “HexCer 20:0 content of cerebellum” value (cerebellum; [2]) was 25.9921 and 81.8108 and 22.9498 and 52.8818 and 49.4884 and 37.7023 and 27.8092 and 23.4231 and 13.0014 and 19.1491 and the “HexCer 20:1 content of cerebellum” value (cerebellum; [2]) was 2.413 and 5.45 and 1.502 and 2.714 and 3.093 and 3.36 and 3.204 and 0.8678 and 1.872 and 1.364. The “HexCer 22:0 content of cerebellum” value (cerebellum; [2]) was 505.659 and 1204.39 and 420.547 and 840.893 and 660.332 and 669.272 and 501.784 and 427.814 and 264.729 and 391.884, the “HexCer 22:1 content of cerebellum” value (cerebellum; [2]) was 79.5132 and 228.816 and 78.1356 and 158.552 and 150.676 and 92.9587 and 63.0534 and 66.2392 and 42.1951 and 49.044 and the “HexCer 24:0 content of cerebellum” value (cerebellum; [2]) was 2652.92 and 5943.48 and 2280.7 and 4343.65 and 3299.69 and 3289.82 and 2658.72 and 2324.32 and 1408.65 and 2090.2. The “HexCer 24:1 content of cerebellum” value (cerebellum; [2]) was 5027.14 and 9363.75 and 4512.26 and 7271.57 and 6673.35 and 6052.94 and 5424.24 and 3829.42 and 3500.76 and 3500.55, the “SM 32:1 content of cerebellum” value (cerebellum; [2]) was 9.976 and 12.4114 and 9.047 and 10.2584 and 10.5601 and 10.6625 and 8.862 and 9.432 and 8.153 and 9.013 and the “SM 34:1 content of cerebellum” value (cerebellum; [2]) was 133.106 and 161.415 and 90.4808 and 115.694 and 117.777 and 135.794 and 123.089 and 72.6388 and 98.8077 and 73.1632. The “SM 34:2 content of cerebellum” value (cerebellum; [2]) was 5.986 and 10.8404 and 8.948 and 9.3676 and 9.279 and 9.028 and 5.849 and 7.187 and 3.938 and 7.222, the “SM 36:1 content of cerebellum” value (cerebellum; [2]) was 437.801 and 529.096 and 247.962 and 355.417 and 343.012 and 490.447 and 544.072 and 175.073 and 405.398 and 201.504 and the “SM 36:2 content of cerebellum” value (cerebellum; [2]) was 35.911 and 106.46 and 51.4739 and 67.513 and 67.8953 and 51.6927 and 57.9458 and 40.9288 and 32.7758 and 44.6146. The “SM 38:1 content of cerebellum” value (cerebellum; [2]) was 151.251 and 204.797 and 99.8821 and 137.133 and 146.282 and 182.882 and 197.347 and 79.7159 and 145.438 and 91.2461, the “SM 38:2 content of cerebellum” value (cerebellum; [2]) was 6.1474 and 11.1901 and 6.7471 and 8.325 and 8.851 and 10.1186 and 6.052 and 4.124 and 3.938 and 4.099 and the “SM 40:1 content of cerebellum” value (cerebellum; [2]) was 183.889 and 372.913 and 177.074 and 235.958 and 281.655 and 224.359 and 174.632 and 162.333 and 129.812 and 151.975. For the same molecule, the “SM 40:2 content of cerebellum” value (cerebellum; [2]) was 54.9137 and 116.436 and 59.8853 and 73.425 and 86.9536 and 64.465 and 34.4644 and 47.3579 and 33.4194 and 39.329, the “SM 42:1 content of cerebellum” value (cerebellum; [2]) was 210.79 and 460.407 and 223.848 and 278.666 and 328.3 and 236.404 and 186.283 and 198.576 and 131.683 and 195.129 and the “SM 42:2 content of cerebellum” value (cerebellum; [2]) was 687.51 and 1423.11 and 718.618 and 898.145 and 1023.47 and 688.732 and 582.437 and 593.074 and 472.141 and 503.36. The “C18:0 HexCer in cerebellum, lower than vehicle” value (cerebellum; HFD group, adjusted P = 0.16) was 45%, the “C18 ceramide or SM levels in cerebellum” value (cerebellum; chow or HFD) was “did not affect” and the food intake (C57BL6/J mice) was “not due to any effect of P053 on food intake”. The “oxidation of 14C-palmitate in muscle homogenates” value (SkM homogenates) was “increased oxidation” and the “reduction of C18:0 ceramide content” value [1] was ~ 30%.
